Source: patent US4923963A, “Bradykinin antagonist peptides” (Nova Technology Limited Partnership, priority 1987, dated 1990)
Where two headings read alike, the source gives them in different places. Square brackets hold non-standard residues; d marks the D form. Peptide text beside a SMILES is read from it. dPhe(4-Cl) = N[C@H](Cc1ccc(Cl)cc1)C(=O)O; dPhe(4-F) = N[C@H](Cc1ccc(F)cc1)C(=O)O; d2Nal = N[C@H](Cc1ccc2ccccc2c1)C(=O)O; Hyp = O=C(O)[C@@H]1C[C@@H](O)CN1; 2Thi = N[C@@H](Cc1cccs1)C(=O)O; d2Thi = N[C@H](Cc1cccs1)C(=O)O

Experiments:
[1] = test system: isolated guinea pig ileum; type: cell-based; design: pA2 /GPI: activity class: scale not given here; conditions: isolated guinea pig ileum; not quantitated
Procedure: (§1) The bradykinin antagonists were assayed on isolated rat uterus in natural or induced estrus and on guinea pig ileum, according to the commonly accepted assay methods for bradykinin and related kinins as described by Trautschold (Handbook of Expt. Pharmacol. Vol 25, Springer Verlag, pp. 53-55, 1970) for inhibition of the myotropic activity of bradykinin. The inhibition potencies, as determined according to the commonly accepted manner described by Schild for antagonists of biologically active compounds (Br. J. Pharmacol. 2:189, 1947), and expressed as pA2 values are determined on isolated rat uterus (RUT) and isolated guinea pig ileum (GPI). In the assays, a dose-response curve is determined for the reference substance bradykinin. The dose of bradykinin which produced a half maximal contraction of tissue is the ED50 dose. An amount of bradykinin equivalent to twice the ED50 dose is administered to the tissue 30 seconds after the start of incubation of the tissue with a dose of antagonist. Doses of antagonist are increased in this protocol until pre-incubation with a dose of antagonist reduces the contraction in response to the double ED50 dose of bradykinin to response of a single ED50 dose of bradykinin. The pA2 value represents the negative logarithm of the molar concentration of antagonist necessary to reduce the response of a double ED50 dose of bradykinin to that of an ED50 dose. One unit of pA2 value represents an order of magnitude change in potency. For comparison, the negative log of the dose of BK, the dose which causes half maximal contraction of the tissues, is commonly known as the pD2 value. The pD2 value for bradykinin is 7.9 on the rat uterus and 7.4 on the guinea pig ileum.

rat blood pressure = experiment: effects on blood pressure in the anesthetized rat (RBP), intraaortic and intravenous bolus; type: in vivo; design: RBP-IA: activity class / RBP-IV: activity class: scale not given here
Procedure: The in vivo effects of bradykinin antagonists on blood pressure in the anesthetized rat are determined according to the assay described by Roblero, Ryan and Stewart (Res. Commun. Pathol. Pharmacol. 6:207, 1973). The antagonists also produce inhibition of the bradykinin response when injected as a bolus admixture of bradykinin plus antagonist by either the ia or iv route of administration.

isolated rat uterus = type: cell-based
Procedure: as §1

[2] = rat blood pressure, intraaortic bolus
[3] = rat blood pressure, intravenous bolus

N=C(N)NCCC[C@H](NC(=O)[C@H](Cc1ccccc1)NC(=O)[C@@H](Cc1ccccc1)NC(=O)[C@H](CO)NC(=O)[C@H](Cc1ccccc1)NC(=O)CNC(=O)[C@@H]1C[C@@H](O)CN1C(=O)[C@@H]1CCCN1C(=O)[C@H](N)Cc1ccc(Cl)cc1)C(=O)O [Example 3, CDF-Pro-Hyp-Gly-Phe-Ser-DPhe-Phe-Arg] (H-[dPhe(4-Cl)]P[Hyp]GFS[dF]FR-OH)
pA2 /GPI: activity class [1]: 0

N=C(N)NCCC[C@H](NC(=O)[C@H](Cc1ccccc1)NC(=O)[C@@H](Cc1cccs1)NC(=O)[C@H](CO)NC(=O)[C@H](Cc1ccccc1)NC(=O)CNC(=O)[C@@H]1CCCN1C(=O)[C@@H]1CCCN1C(=O)[C@H](N)Cc1ccc(Cl)cc1)C(=O)O [Example 6, CDF-Pro-Pro-Gly-Phe-Ser-DThi-Phe-Arg] (H-[dPhe(4-Cl)]PPGFS[d2Thi]FR-OH)
RBP-IA: activity class (rat blood pressure; [2]): 0 | RBP-IV: activity class (rat blood pressure; [3]): 0 | pA2 /GPI: activity class [1]: 0

N=C(N)NCCC[C@H](NC(=O)[C@H](Cc1ccccc1)NC(=O)[C@@H](Cc1ccccc1)NC(=O)[C@H](CO)NC(=O)[C@H](Cc1ccccc1)NC(=O)CNC(=O)[C@@H]1C[C@@H](O)CN1C(=O)[C@@H]1CCCN1C(=O)[C@H](N)Cc1ccc(O)cc1)C(=O)O [Example 9, DTyr-Pro-Hyp-Gly-Phe-Ser-DPhe-Phe-Arg] (H-[dY]P[Hyp]GFS[dF]FR-OH)
pA2 /GPI: activity class [1]: 0

N=C(N)NCCC[C@H](NC(=O)[C@H](Cc1ccccc1)NC(=O)[C@@H](Cc1ccccc1)NC(=O)[C@H](CO)NC(=O)[C@H](Cc1ccccc1)NC(=O)CNC(=O)[C@@H]1C[C@@H](O)CN1C(=O)[C@@H]1CCCN1C(=O)[C@H](N)Cc1ccc(F)cc1)C(=O)O [Example 11, FDF-Pro-Hyp-Gly-Phe-Ser-DPhe-Phe-Arg] (H-[dPhe(4-F)]P[Hyp]GFS[dF]FR-OH)
pA2 /GPI: activity class [1]: 0

CC(C)[C@@H](NC(=O)[C@H](N)CCCNC(=N)N)C(=O)N1CCC[C@H]1C(=O)N1C[C@H](O)C[C@H]1C(=O)NCC(=O)N[C@@H](Cc1ccccc1)C(=O)N[C@@H](CO)C(=O)N[C@H](Cc1ccccc1)C(=O)N[C@@H](Cc1ccccc1)C(=O)N[C@@H](CCCNC(=N)N)C(=O)O [Example 16, DArg-DVal-Pro-Hyp-Gly-Phe-Ser-DPhe-Phe-Arg] (H-[dR][dV]P[Hyp]GFS[dF]FR-OH)
RBP-IA: activity class (rat blood pressure; [2]): 0 | RBP-IV: activity class (rat blood pressure; [3]): 0 | pA2 /GPI: activity class [1]: 0

CC[C@@H](C)[C@@H](N)C(=O)N1CCC[C@H]1C(=O)N1C[C@H](O)C[C@H]1C(=O)NCC(=O)N[C@@H](Cc1ccccc1)C(=O)N[C@@H](CO)C(=O)N[C@H](Cc1ccccc1)C(=O)N[C@@H](Cc1ccccc1)C(=O)N[C@@H](CCCNC(=N)N)C(=O)O [Example 17, DIle-Pro-Hyp-Gly-Phe-Ser-DPhe-Phe-Arg] (H-[dI]P[Hyp]GFS[dF]FR-OH)
RBP-IA: activity class (rat blood pressure; [2]): 0 | RBP-IV: activity class (rat blood pressure; [3]): 0 | pA2 /GPI: activity class [1]: 0

N=C(N)NCCC[C@H](NC(=O)[C@H](Cc1cccs1)NC(=O)[C@@H](Cc1ccccc1)NC(=O)[C@H](CO)NC(=O)[C@H](Cc1cccs1)NC(=O)CNC(=O)[C@@H]1CCCN1C(=O)[C@@H]1CCCN1C(=O)[C@@H](Cc1ccc2ccccc2c1)NC(=O)[C@H](CCCCN)NC(=O)[C@@H](N)CCCCN)C(=O)O [Example 24, Lys-Lys-DNal-Pro-Pro-Gly-Thi-Ser-DPhe-Thi-Arg] (H-KK[d2Nal]PPG[2Thi]S[dF][2Thi]R-OH)
pA2 /GPI: activity class [1]: 0

N=C(N)NCCC[C@@H](N)C(=O)N[C@H](Cc1cccs1)C(=O)N1CCC[C@H]1C(=O)N1C[C@H](O)C[C@H]1C(=O)NCC(=O)N[C@@H](Cc1ccccc1)C(=O)N[C@@H](CO)C(=O)N[C@H](Cc1cccs1)C(=O)N[C@@H](Cc1ccccc1)C(=O)N[C@@H](CCCNC(=N)N)C(=O)O [Example 36, DArg-DThi-Pro-Hyp-Gly-Phe-Ser-DThi-Phe-Arg] (H-[dR][d2Thi]P[Hyp]GFS[d2Thi]FR-OH)
pA2 /GPI: activity class [1]: 0

N=C(N)NCCC[C@H](NC(=O)[C@H](Cc1cccs1)NC(=O)[C@@H](Cc1ccccc1)NC(=O)[C@H](CO)NC(=O)[C@H](Cc1cccs1)NC(=O)CNC(=O)[C@@H]1CCCN1C(=O)[C@@H]1CCCN1C(=O)[C@@H](N)CCCNC(=N)N)C(N)=O [Example 51, Arg-Pro-Pro-Gly-Thi-Ser-DPhe-Thi-Arg-NH2] (H-RPPG[2Thi]S[dF][2Thi]R-NH2)
% DESTR (metabolic breakdown of BK-like agonists in RBP assay) (rat blood pressure; rat, in vivo): 52% | RBP-IA: agonist potency as percent of BK potency (rat blood pressure; rat, in vivo): 0.05% | RBP-IV: agonist potency as percent of BK potency (rat blood pressure; rat, in vivo, iv): 2% | pA2 /RUT: agonist potency as percent of BK potency (isolated rat uterus): 0.02%

N=C(N)NCCC[C@H](N)C(=O)N1CCC[C@H]1C(=O)N1CCC[C@H]1C(=O)NCC(=O)N[C@@H](Cc1cccs1)C(=O)N[C@@H](CO)C(=O)N[C@H](Cc1ccccc1)C(=O)N[C@@H](Cc1cccs1)C(=O)N[C@H](CCCNC(=N)N)C(N)=O [Example 55, Arg-Pro-Pro-Gly-Thi-Ser-DPhe-Thi-DArg-NH2] (H-RPPG[2Thi]S[dF][2Thi][dR]-NH2)
% DESTR (metabolic breakdown of BK-like agonists in RBP assay) (rat blood pressure; rat, in vivo): 61% | RBP-IA: agonist potency as percent of BK potency (rat blood pressure; rat, in vivo): 0.1% | RBP-IV: agonist potency as percent of BK potency (rat blood pressure; rat, in vivo, iv): 0.9% | pA2 /RUT: agonist potency as percent of BK potency (isolated rat uterus): 0.01%

N=C(N)NCCC[C@H](NC(=O)[C@H](CCCCN)NC(=O)[C@@H](N)CCCCN)C(=O)N1CCC[C@H]1C(=O)N1CCC[C@H]1C(=O)NCC(=O)N[C@@H](Cc1cccs1)C(=O)N[C@@H](CO)C(=O)N[C@H](Cc1ccccc1)C(=O)N[C@@H](Cc1cccs1)C(=O)N[C@H](CCCNC(=N)N)C(N)=O [Example 58, Lys-Lys-Arg-Pro-Pro-Gly-Thi-Ser-DPhe-Thi-DArg-NH2] (H-KKRPPG[2Thi]S[dF][2Thi][dR]-NH2)
% DESTR (metabolic breakdown of BK-like agonists in RBP assay) (rat blood pressure; rat, in vivo): 60% | RBP-IA: agonist potency as percent of BK potency (rat blood pressure; rat, in vivo): 0.2% | RBP-IV: agonist potency as percent of BK potency (rat blood pressure; rat, in vivo, iv): 3% | pA2 /RUT: agonist potency as percent of BK potency (isolated rat uterus): 0.02%

CC[C@H](C)[C@H](NC(=O)[C@H](CCCNC(=N)N)NC(=O)[C@H](Cc1ccccc1)NC(=O)[C@@H](Cc1ccccc1)NC(=O)[C@H](CO)NC(=O)[C@H](Cc1ccccc1)NC(=O)CNC(=O)[C@@H]1CCCN1C(=O)[C@@H]1CCCN1C(=O)[C@@H](N)CCCNC(=N)N)C(=O)N[C@@H](Cc1ccc(O)cc1)C(=O)O [Example 63, Arg-Pro-Pro-Gly-Phe-Ser-DPhe-Phe-Arg-Ile-Tyr] (H-RPPGFS[dF]FRIY-OH)
RBP-IA: agonist potency as percent of BK potency (rat blood pressure; [2]): 0.2% | RBP-IV: agonist potency as percent of BK potency (rat blood pressure; [3]): 2% | % DESTR (metabolic breakdown of BK-like agonists in RBP assay) (rat blood pressure; relative to BK = 100%): 70% | pA2 /RUT: agonist potency as percent of BK potency (isolated rat uterus; isolated rat uterus): 0.6%

CC[C@H](C)[C@H](NC(=O)[C@H](CCCNC(=N)N)NC(=O)[C@H](Cc1cccs1)NC(=O)[C@@H](Cc1ccccc1)NC(=O)[C@H](CO)NC(=O)[C@H](Cc1cccs1)NC(=O)CNC(=O)[C@@H]1CCCN1C(=O)[C@@H]1CCCN1C(=O)[C@@H](N)CCCNC(=N)N)C(=O)N[C@@H](Cc1ccc(O)cc1)C(=O)O [Example 65, Arg-Pro-Pro-Gly-Thi-Ser-DPhe-Thi-Arg-Ile-Tyr] (H-RPPG[2Thi]S[dF][2Thi]RIY-OH)
RBP-IA: agonist potency as percent of BK potency (rat blood pressure; [2]): 0.06% | RBP-IV: agonist potency as percent of BK potency (rat blood pressure; [3]): 6% | % DESTR (metabolic breakdown of BK-like agonists in RBP assay) (rat blood pressure; relative to BK = 100%): 0% | pA2 /RUT: agonist potency as percent of BK potency (isolated rat uterus; isolated rat uterus): 0.5%
